# Test results: paper PMC3233689 (The Journal of neuroscience : the official journal of the …, 2011)
# Key:
# RDL receptor (WT) = molecular target: T1, RDL receptor (WT) (Drosophila melanogaster, UniProt P25123); assay: GABA-induced currents, voltage clamp of Xenopus oocytes expressing wild type RDL; assay type: cell-based; conditions: Hill coefficient, mean ± SEM
# T1 sequence (P25123 45-606): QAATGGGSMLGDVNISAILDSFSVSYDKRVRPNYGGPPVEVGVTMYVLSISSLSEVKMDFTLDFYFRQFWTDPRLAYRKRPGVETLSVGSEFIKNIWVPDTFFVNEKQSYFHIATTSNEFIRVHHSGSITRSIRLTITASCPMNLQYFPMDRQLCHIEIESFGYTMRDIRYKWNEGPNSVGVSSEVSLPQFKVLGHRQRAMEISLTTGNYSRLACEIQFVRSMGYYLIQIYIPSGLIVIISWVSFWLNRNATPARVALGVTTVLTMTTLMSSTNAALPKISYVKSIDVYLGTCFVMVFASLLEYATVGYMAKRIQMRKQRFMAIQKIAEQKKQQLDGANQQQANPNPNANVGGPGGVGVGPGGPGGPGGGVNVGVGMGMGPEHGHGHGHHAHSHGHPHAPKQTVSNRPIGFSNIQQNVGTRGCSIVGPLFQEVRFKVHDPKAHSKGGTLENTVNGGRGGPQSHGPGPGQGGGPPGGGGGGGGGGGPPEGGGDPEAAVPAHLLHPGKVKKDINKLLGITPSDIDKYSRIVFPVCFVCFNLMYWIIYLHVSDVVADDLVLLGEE
# RDL receptor F206A = RDL receptor F206A (Drosophila melanogaster, UniProt P25123, F206A); assay: GABA-induced currents in oocytes, RDL F206A; assay type: cell-based; conditions: Phe206 substituted with Ala, compared to WT
# RDL receptor F206Y = RDL receptor F206Y (Drosophila melanogaster, UniProt P25123, F206Y); assay: GABA-induced currents in oocytes, RDL F206Y; assay type: cell-based
# RDL receptor Y254A = RDL receptor Y254A (Drosophila melanogaster, UniProt P25123, Y254A); assay: GABA-induced currents in oocytes, RDL Y254A; assay type: cell-based; conditions: Tyr254Ala receptors, GABA up to 100 mM
# RDL receptor Y254F = RDL receptor Y254F (Drosophila melanogaster, UniProt P25123, Y254F); assay: GABA-induced currents in oocytes, RDL Y254F; assay type: cell-based
# RDL receptor F206Y/Y254F = RDL receptor F206Y/Y254F (Drosophila melanogaster, UniProt P25123, F206Y/Y254F); assay: GABA-induced currents in oocytes, RDL F206Y/Y254F; assay type: cell-based; conditions: Hill coefficient
# RDL receptor F146A = RDL receptor F146A (Drosophila melanogaster, UniProt P25123, F146A); assay: GABA-induced currents in oocytes, RDL F146A; assay type: cell-based
# [1] = test system: RDL mutant (TAG) mRNA without aminoacylated tRNA; assay type: cell-based, Drosophila; conditions: 5 mM GABA; mutant mRNA alone or with tRNA-dCA with no amino acid attached
# RDL receptor F206-FPhe = conditions: Hill coefficient, GABA
# RDL receptor F206-F2Phe = conditions: Hill coefficient, GABA
# RDL receptor F206-F3Phe = conditions: Hill coefficient, GABA
# RDL receptor Y254-FPhe = conditions: Hill coefficient, GABA
# RDL receptor Y254F2-Phe = conditions: Hill coefficient, GABA
# RDL receptor Y254F3-Phe = conditions: Hill coefficient, GABA
# RDL receptor F146F3Phe = conditions: Hill coefficient, GABA
# GABAA receptor = conditions: GABA-activated GABAA receptor; ref Padgett et al., 2007; cited from earlier work
# GABAC receptor = conditions: GABA-activated GABAC receptor; ref Lummis et al., 2005; cited from earlier work
# RDL receptor = conditions: homomers in Xenopus oocytes; ref Zhang et al., 1994; cited from earlier work
# Chain of RDL receptor F206Y (P25123 45-606 F206Y): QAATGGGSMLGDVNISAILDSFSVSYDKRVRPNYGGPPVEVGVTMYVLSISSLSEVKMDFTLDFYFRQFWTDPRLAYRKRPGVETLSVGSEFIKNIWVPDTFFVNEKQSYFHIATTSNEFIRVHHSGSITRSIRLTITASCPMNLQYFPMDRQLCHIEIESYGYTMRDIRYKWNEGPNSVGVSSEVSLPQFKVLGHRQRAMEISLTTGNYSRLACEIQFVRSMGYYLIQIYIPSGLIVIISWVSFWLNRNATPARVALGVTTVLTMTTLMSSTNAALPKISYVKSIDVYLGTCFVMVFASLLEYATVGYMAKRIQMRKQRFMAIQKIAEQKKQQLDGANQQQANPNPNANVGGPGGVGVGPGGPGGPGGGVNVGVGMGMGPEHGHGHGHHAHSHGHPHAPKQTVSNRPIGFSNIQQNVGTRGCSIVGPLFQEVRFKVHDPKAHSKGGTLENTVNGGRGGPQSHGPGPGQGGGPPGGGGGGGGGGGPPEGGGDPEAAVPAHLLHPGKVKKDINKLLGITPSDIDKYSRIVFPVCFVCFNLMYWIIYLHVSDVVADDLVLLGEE
# Chain of RDL receptor Y254F (P25123 45-606 Y254F): as the sequence (P25123 45-606 F206Y) above, with Y162F, Y210F counted along it
# Chain of RDL receptor F146A (P25123 45-606 F146A): as the sequence (P25123 45-606 F206Y) above, with F102A, Y162F counted along it
# Chain of RDL receptor Y254A (P25123 45-606 Y254A): as the sequence (P25123 45-606 F206Y) above, with Y162F, Y210A counted along it
# Chain of RDL receptor F206A (P25123 45-606 F206A): as the sequence (P25123 45-606 F206Y) above, with Y162A counted along it
# Chain of RDL receptor F206Y/Y254F (P25123 45-606 F206Y/Y254F): as the sequence (P25123 45-606 F206Y) above, with Y210F counted along it
compound,measurement,setting,value
NCCCC(=O)O [GABA],nH,RDL receptor (WT),1.4 ± 0.2
same,increase in EC50,RDL receptor F206A,~50 fold
same,nH,"RDL receptor F206Y; Hill coefficient, F206Y",2.2 ± 0.3
same,decrease in EC50 compared to WT,RDL receptor F206Y; Phe206Tyr,~200 fold
same,response to GABA,RDL receptor Y254A,did not respond
same,nH,"RDL receptor Y254F; Hill coefficient, Y254F",2.1 ± 0.4
same,increase in EC50,"RDL receptor Y254F; Tyr254 substituted with Phe, compared to WT",~4 fold
same,nH,RDL receptor F206Y/Y254F,1.9 ± 0.5
same,nH,"RDL receptor F146A; Hill coefficient, GABA, F146A",2.1 ± 0.2
same,increase in GABA EC50,"RDL receptor F146A; Phe146 substituted with Ala, compared to WT",< 4 fold
same,currents in response to GABA,[1],No currents
same,nH,RDL receptor F206-FPhe,1.8 ± 0.3
same,nH,RDL receptor F206-F2Phe,1.8 ± 0.3
same,nH,RDL receptor F206-F3Phe,2.0 ± 0.4
same,nH,RDL receptor Y254-FPhe,1.3 ± 0.4
same,nH,RDL receptor Y254F2-Phe,1.1 ± 0.2
same,nH,RDL receptor Y254F3-Phe,1.2 ± 0.3
same,nH,RDL receptor F146F3Phe,1.4 ± 0.4
same,slope of fluorination plot,GABAA receptor,0.29
same,slope of fluorination plot,GABAC receptor,0.21
picrotoxin,inhibition of RDL receptors,RDL receptor,inhibited
